Measurements taken from patent US11472797B2, “Pesticidally active pyrazole derivatives” (SYNGENTA PARTICIPATIONS AG, priority 2017, dated 2022).

Key:
[1] = test system: Spodoptera littoralis (Egyptian Cotton Leaf Worm); assay: Spodoptera littoralis cotton leaf disc spray test; type: in vivo; conditions: foliar, 72 h, application rate 200 ppm, L1 larvae, 3 days after infestation, read-out: control (at least one of mortality, anti-feedant effect, and growth inhibition)
Experimental: Spodoptera littoralis (Egyptian Cotton Leaf Worm)
Cotton leaf discs were placed on agar in 24-well microtiter plates and sprayed with aqueous test solutions prepared from 10,000 ppm DMSO stock solutions. After drying the leaf discs were infested with five L1 larvae. The samples were assessed for mortality, anti-feedant effect, and growth inhibition in comparison to untreated samples 3 days after infestation. Control of Spodoptera littoralis by a test sample is when at least one of mortality, anti-feedant effect, and growth inhibition is higher than the untreated sample.

[2] = test system: Plutella xylostella (Diamond Back Moth); assay: Plutella xylostella artificial diet test; type: in vivo; conditions: 120 h, application rate 200 ppm, L2 larvae, 5 days after infestation, read-out: effect in at least one of the two categories (mortality or growth inhibition)
Experimental: Plutella xylostella (Diamond Back Moth):
24-well microtiter plates with artificial diet were treated with aqueous test solutions prepared from 10,000 ppm DMSO stock solutions by pipetting. After drying, the plates were infested with L2 larvae (10 to 15 per well). The samples were assessed for mortality and growth inhibition in comparison to untreated samples 5 days after infestation. The following compounds gave an effect of at least 80% in at least one of the two categories (mortality or growth inhibition) at an application rate of 200 ppm: 1, 2, 3, 4, 5, 6, 7, 8, 9, 11 and 12.

[3] = test system: Diabrotica Balteata, (Corn Root Worm); assay: Diabrotica balteata maize sprout spray test; type: in vivo; conditions: 96 h, application rate 200 ppm, L2 larvae, 4 days after infestation, read-out: effect in at least one of the two categories (mortality or growth inhibition)
Experimental: Diabrotica Balteata, (Corn Root Worm) Maize sprouts, placed on an agar layer in 24-well microtiter plates were treated with aqueous test solutions prepared from 10,000 ppm DMSO stock solutions by spraying. After drying, the plates were infested with L2 larvae (6 to 10 per well). The samples were assessed for mortality and growth inhibition in comparison to untreated samples 4 days after infestation. The following compounds gave an effect of at least 80% in at least one of the two categories (mortality or growth inhibition) at an application rate of 200 ppm: 1, 2, 3, 5 and 6.

[4] = test system: Thrips tabaci (Onion Thrips); assay: Thrips tabaci sunflower leaf disc spray test; type: in vivo; conditions: foliar, 144 h, application rate 200 ppm, population of mixed ages, 6 days after infestation
Experimental: Thrips tabaci (Onion Thrips):
(§1) Sunflower leaf discs were placed on agar in 24-well microtiter plates and sprayed with aqueous test solutions prepared from 10,000 ppm DMSO stock solutions. After drying the leaf discs were infested with a thrips population of mixed ages. The samples were assessed for mortality 6 days after infestation.

[5] = test system: Tetranychus urticae (Two-Spotted Spider Mite); assay: Tetranychus urticae bean leaf disc spray test; type: in vivo; conditions: foliar, 192 h
Experimental: Tetranychus urticae (Two-Spotted Spider Mite):
as §1, with “Bean” for “Sunflower”, “discs” for “discs were placed”, “were” for “and”, “mite” for “thrips”, “on mixed population (mobile stages) 8” for “6”

[6] = test system: Euschistus heros (Neotropical Brown Stink Bug); assay: Euschistus heros soybean leaf spray test; type: in vivo; conditions: 120 h, application rate 200 ppm, N2 nymphs, 5 days after infestation, read-out: effect in at least one of the two categories (mortality or growth inhibition)
Experimental: Euschistus heros (Neotropical Brown Stink Bug)
Soybean leaves on agar in 24-well microtiter plates were sprayed with aqueous test solutions prepared from 10,000 ppm DMSO stock solutions. After drying the leaves were infested with N2 nymphs. The samples were assessed for mortality and growth inhibition in comparison to untreated samples 5 days after infestation. The following compounds gave an effect of at least 80% in at least one of the two categories (mortality or growth inhibition) at an application rate of 200 ppm: 1

Structure (SMILES)	mortality at 200 ppm [1]	percent effect (mortality or growth inhibition) at 200 ppm [2]	percent effect (mortality or growth inhibition) at 200 ppm [3]	mortality at 200 ppm [4]	mortality at 200 ppm [5]	melting point	percent effect (mortality or growth inhibition) at 200 ppm [6]
Cn1nc(OC(F)(F)C(F)C(F)(F)F)c(C(F)(F)F)c1-c1cc(-c2cc(C(=O)NC3CC3)c(Cl)s2)on1 (stereo not shown) [Example 7, 2-chloro-N-cyclopropyl-5-[3-[5-(1,1,2,3,3,3-hexafluoropropoxy)-2-methyl-4-(trifluoromethyl)pyrazol-3-yl]isoxazol-5-yl]thiophene-3-carboxamide]	≥ 80%	≥ 80%	–	–	–	–	–
CCN(C(=O)c1cc(-c2cc(-c3c(C(F)(F)F)c(OC(F)(F)C(F)C(F)(F)F)nn3C)no2)sc1C#N)C1(C#N)CC1 (stereo not shown) [Example 6, 2-cyano-N-(1-cyanocyclopropyl)-N-ethyl-5-[3-[5-(1,1,2,3,3,3-hexafluoropropoxy)-2-methyl-4-(trifluoromethyl)pyrazol-3-yl]isoxazol-5-yl]thiophene-3-carboxamide]	≥ 80%	≥ 80%	≥ 80%	≥ 80%	–	–	–
CCN(C(=O)c1cc(-c2cc(-c3c(C(F)(F)F)c(OC(F)(F)C(F)C(F)(F)F)nn3C)no2)sc1Cl)C1(C#N)CC1 (stereo not shown) [Example 12, 2-chloro-N-(1-cyanocyclopropyl)-N-ethyl-5-[3-[5-(1,1,2,3,3,3-hexafluoropropoxy)-2-methyl-4-(trifluoromethyl)pyrazol-3-yl]isoxazol-5-yl]thiophene-3-carboxamide]	≥ 80%	≥ 80%	–	–	–	–	–
CCN(C(=O)c1cc(-c2cc(-c3c(C(F)(F)F)c(OC(F)(F)C(F)C(F)(F)F)nn3C)no2)sc1Cl)C1CC1 (stereo not shown) [Example 9, 2-chloro-N-cyclopropyl-N-ethyl-5-[3-[5-(1,1,2,3,3,3-hexafluoropropoxy)-2-methyl-4-(trifluoromethyl)pyrazol-3-yl]isoxazol-5-yl]thiophene-3-carboxamide]	≥ 80%	≥ 80%	–	–	–	–	–
CN(C(=O)c1cc(-c2cc(-c3c(C(F)(F)F)c(OC(F)(F)C(F)C(F)(F)F)nn3C)no2)sc1C#N)C1(C#N)CC1 (stereo not shown) [Example 5, 2-cyano-N-(1-cyanocyclopropyl)-5-[3-[5-(1,1,2,3,3,3-hexafluoropropoxy)-2-methyl-4-(trifluoromethyl)pyrazol-3-yl]isoxazol-5-yl]-N-methyl-thiophene-3-carboxamide]	≥ 80%	≥ 80%	≥ 80%	≥ 80%	–	–	–
CN(C(=O)c1cc(-c2cc(-c3c(C(F)(F)F)c(OC(F)(F)C(F)C(F)(F)F)nn3C)no2)sc1Cl)C1(C#N)CC1 (stereo not shown) [Example 11, 2-chloro-N-(1-cyanocyclopropyl)-5-[3-[5-(1,1,2,3,3,3-hexafluoropropoxy)-2-methyl-4-(trifluoromethyl)pyrazol-3-yl]isoxazol-5-yl]-N-methyl-thiophene-3-carboxamide]	≥ 80%	≥ 80%	–	–	–	–	–
Cn1nc(OC(F)(F)C(F)C(F)(F)F)c(C(F)(F)F)c1-c1cc(-c2cc(C(=O)NC3(C#N)CC3)c(C#N)s2)on1 (stereo not shown) [Example 4, 2-cyano-N-(1-cyanocyclopropyl)-5-[3-[5-(1,1,2,3,3,3-hexafluoropropoxy)-2-methyl-4-(trifluoromethyl)pyrazol-3-yl]isoxazol-5-yl]thiophene-3-carboxamide]	–	≥ 80%	–	≥ 80%	–	–	–
CCN(C(=O)c1cc(-c2cc(-c3c(C(F)(F)F)c(OC(F)(F)C(F)C(F)(F)F)nn3C)no2)sc1C#N)C1CC1 (stereo not shown) [Example 3, 2-cyano-N-cyclopropyl-N-ethyl-5-[3-[5-(1,1,2,3,3,3-hexafluoropropoxy)-2-methyl-4-(trifluoromethyl)pyrazol-3-yl]isoxazol-5-yl]thiophene-3-carboxamide]	–	≥ 80%	≥ 80%	≥ 80%	–	–	–
CN(C(=O)c1cc(-c2cc(-c3c(C(F)(F)F)c(OC(F)(F)C(F)C(F)(F)F)nn3C)no2)sc1C#N)C1CC1 (stereo not shown) [Example 2, 2-cyano-N-cyclopropyl-5-[3-[5-(1,1,2,3,3,3-hexafluoropropoxy)-2-methyl-4-(trifluoromethyl)pyrazol-3-yl]isoxazol-5-yl]-N-methyl-thiophene-3-carboxamide]	–	≥ 80%	≥ 80%	≥ 80%	≥ 80%	–	–
Cn1nc(OC(F)(F)C(F)C(F)(F)F)c(C(F)(F)F)c1-c1cc(-c2cc(C(=O)NC3(C#N)CC3)c(Cl)s2)on1 (stereo not shown) [Example 10, 2-chloro-N-(1-cyanocyclopropyl)-5-[3-[5-(1,1,2,3,3,3-hexafluoropropoxy)-2-methyl-4-(trifluoromethyl)pyrazol-3-yl]isoxazol-5-yl]thiophene-3-carboxamide]	–	–	–	–	–	218 to 219 °C	–
CN(C(=O)c1cc(-c2cc(-c3c(C(F)(F)F)c(OC(F)(F)C(F)C(F)(F)F)nn3C)no2)sc1Cl)C1CC1 (stereo not shown) [Example 8, 2-chloro-N-cyclopropyl-5-[3-[5-(1,1,2,3,3,3-hexafluoropropoxy)-2-methyl-4-(trifluoromethyl)pyrazol-3-yl]isoxazol-5-yl]-N-methyl-thiophene-3-carboxamide]	≥ 80%	≥ 80%	–	–	–	–	–
Cn1nc(OC(F)(F)C(F)C(F)(F)F)c(C(F)(F)F)c1-c1cc(-c2cc(C(=O)NC3CC3)c(C#N)s2)on1 (stereo not shown) [Example 1, 2-cyano-N-cyclopropyl-5-[3-[5-(1,1,2,3,3,3-hexafluoropropoxy)-2-methyl-4-(trifluoromethyl)pyrazol-3-yl]isoxazol-5-yl]thiophene-3-carboxamide]	≥ 80%	≥ 80%	≥ 80%	≥ 80%	≥ 80%	–	≥ 80%
